Literature values, collected in patent US11458199B2, “Liposome formulations” (OPKO Pharmaceuticals, LLC, priority 2012, dated 2022).

Tests used:
PCME = conditions: retrospective study, prevention of PCME after cataract surgery
VEGF = conditions: read-out: binding affinity to VEGF (Kd)
VEGF, sequence (P15692 214-315 limits assumed): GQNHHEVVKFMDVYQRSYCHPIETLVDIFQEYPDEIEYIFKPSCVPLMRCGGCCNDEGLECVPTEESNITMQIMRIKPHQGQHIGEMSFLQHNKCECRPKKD

C[C@@H]1C[C@H]2[C@@H]3CCC4=CC(=O)C=C[C@]4(C)[C@@]3(F)[C@@H](O)C[C@]2(C)[C@@]1(O)C(=O)COP(=O)(O)O [dexamethasone sodium phosphate 0.1%, dexamethasone sodium phosphate]
postoperative rate of macular edema (PCME): 4.1%

CC(=O)OCC(=O)[C@@]1(O)CC[C@H]2[C@@H]3CCC4=CC(=O)C=C[C@]4(C)[C@H]3[C@@H](O)C[C@@]21C [prednisolone acetate 1%, prednisolone acetate]
postoperative rate of macular edema (PCME): 4.0%

Ranibizumab: recombinant humanized IgG1 kappa isotype monoclonal antibody fragment that binds VEGF-A
Kd (VEGF): ~0.14 nM
